Measurements published in US20220351806A1, “Biomarker Panels for Guiding Dysregulated Host Response Therapy” (Endpoint Health Inc., priority 2019, published 2022).

Tested on: sepsis patients
Assay: VANISH trial survival analysis, hydrocortisone vs placebo, by patient subtype classifier
Type: in vivo, human
Parameters: mortality reduction in the placebo group in comparison to the hydrocortisone group / Mortality rate: concentration or dose not given beside the values
Conditions: for Mortality reduction: Hydro vs Placebo; for hydro_alive / hydro_dead / mr: SS.B2 Model; for mr: 28-day mortality reduction hydro vs placebo; for Alive / Dead / Mortality rate / Survival rate: Hydro group
Text: The test expression data from each trial were normalized by the platform normalization matrix described above^13 so that the test data were more consistent with the training data. The classifiers (e.g., the Full Model, the SS Model, the S Model, and the P Model) were then applied to the normalized data such that the patients were classified into A, B, and C subtypes. […] Therefore, each sample in the target samples was normalized independently with the normalization matrix of the sample array platform.
Survival and mortality rates were calculated at day 28 because survival and mortality labels at other time points were not available. […] Binomial and Chi-squared with continuity correction tests were used to test for the significance of these differences.
In one example, previously identified subtypes of sepsis patients were used to tune the model to identify these type A and B patients. Two distinct sepsis response signatures (SRS1 and SRS2) were identified in five public studies (E-MTAB-4421, E-MTAB-4451, E-MTAB-5273, E-MTAB-5274, and E-MTAB-7581), where HumanHT-12 v4 BeadChip were used to generate the gene expression profiles of the patient samples. The processed data of those five studies were downloaded and processed using R programming language and software environment for statistical analysis (version 3.6.3). The Bioconductor annotation package, illuminaHumanv4.db (version 1.26.0), was used to annotate microarray probes and expression levels of genes were determined by each individual probe or mean of probes belonging to the same gene. In order to remove cohort biases, the Bioconductor package, limma (version 3.42.2), was used to remove batch effects. Using ss.b2 panel genes, subtype A, B, and C scores were calculated by geometric mean of up/down genes.
To build the classifier, we defined E-MTAB-4421, E-MTAB-4451, E-MTAB-5273, and E-MTAB-5274 as the training dataset and VANISH (E-MTAB-7581) as the testing dataset. We used features (subtype A, B, and C scores) and class labels (SRS1 vs SRS2) in the training dataset to build a machine-learned classifier based on support-vector machine (SVM) method. SVM is a supervised machine learning method for classification analysis. The algorithm finds a single or a set of hyperplanes that maximize the margin among subtype A, B, and C scores. In order to capture non-linear data, the kernel function was used. R package e1071 was used to build the SVM classifier with following parameters: method=“C-classification”, kernal=“radial”, gamma=0.1, and cost=10.
The accuracy of the classifiers was evaluated by Leave-One-Out (LOO) cross-validation over the training dataset. Also the classifier was applied to 117 controlled samples from VANISH trial.
In addition to the SVM-method, thresholds can be employed to scores in order to define A vs. B labels. […] Therefore we applied a heuristic threshold (threshold=0) to subtype A and B scores to classify SRS1-like and SRS2-like in VANISH: SRS2-like label was assigned to samples with subtype A score >0 and subtype B score <0 and SRS1-like label was assigned to the rest of samples.
Besides the heuristic threshold, we also derived the thresholds for subtype A and B scores using the training dataset. Same as the SVM method, we defined E-MTAB-4421, E-MTAB-4451, E-MTAB-5273, and E-MTAB-5274 as the training dataset and VANISH (E-MTAB-7581) as the testing dataset.

[1] = class A, A score cutoff 0.0000, B score cutoff 0.0000, accuracy in training set 0.74830, 76.07% of patients
[2] = class A, A score cutoff 0.0000, B score cutoff 0.0000, accuracy in training set 0.74830, 76.92% of patients
[3] = class A, A score cutoff 0.0000, B score cutoff 0.0000, accuracy in training set 0.75283, 76.92% of patients
[4] = class A, A score cutoff 0.0000, B score cutoff 0.0000, accuracy in training set 0.75283, 82.91% of patients
[5] = class A, A score cutoff 0.0000, B score cutoff 0.0000, accuracy in training set 0.76871, 62.39% of patients
[6] = class A, A score cutoff 0.0000, B score cutoff 0.0000, accuracy in training set 0.76871, 76.92% of patients
[7] = class A, A score cutoff −0.0406, B score cutoff 0.1067, accuracy in training set 0.79592, 58.12% of patients
[8] = class A, A score cutoff −0.0406, B score cutoff 0.1067, accuracy in training set 0.79592, 74.36% of patients
[9] = class A, A score cutoff −0.1277, B score cutoff 0.3630, accuracy in training set 0.83673, 60.68% of patients
[10] = class A, A score cutoff −0.1277, B score cutoff 0.3630, accuracy in training set 0.83673, 70.09% of patients
[11] = class A, A score cutoff −0.2664, B score cutoff 0.3179, accuracy in training set 0.82483, 58.12% of patients
[12] = class A, A score cutoff −0.2664, B score cutoff 0.3179, accuracy in training set 0.82483, 60.68% of patients
[13] = class B, A score cutoff 0.0000, B score cutoff 0.0000, accuracy in training set 0.74830, 23.08% of patients
[14] = class B, A score cutoff 0.0000, B score cutoff 0.0000, accuracy in training set 0.74830, 23.93% of patients
[15] = class B, A score cutoff 0.0000, B score cutoff 0.0000, accuracy in training set 0.75283, 17.09% of patients
[16] = class B, A score cutoff 0.0000, B score cutoff 0.0000, accuracy in training set 0.75283, 23.08% of patients
[17] = class B, A score cutoff 0.0000, B score cutoff 0.0000, accuracy in training set 0.76871, 23.08% of patients
[18] = class B, A score cutoff 0.0000, B score cutoff 0.0000, accuracy in training set 0.76871, 37.61% of patients
[19] = class B, A score cutoff −0.0406, B score cutoff 0.1067, accuracy in training set 0.79592, 25.64% of patients
[20] = class B, A score cutoff −0.0406, B score cutoff 0.1067, accuracy in training set 0.79592, 41.88% of patients
[21] = class B, A score cutoff −0.1277, B score cutoff 0.3630, accuracy in training set 0.83673, 29.91% of patients
[22] = class B, A score cutoff −0.2664, B score cutoff 0.3179, accuracy in training set 0.82483, 39.32% of patients
[23] = class B, A score cutoff −0.2664, B score cutoff 0.3179, accuracy in training set 0.82483, 41.88% of patients
[24] = VANISH trial, day 28, Full Model, Total
[25] = VANISH trial, day 28, Full Model, subtype A
[26] = VANISH trial, day 28, Full Model, subtype B

`C[C@]12CCC(=O)C=C1CC[C@@H]1[C@@H]2[C@@H](O)C[C@@]2(C)[C@H]1CC[C@]2(O)C(=O)CO` [Hydro, hydrocortisone] gave a Mortality reduction (1-(lower/higher mortality rate), VANISH trial, day 28, Full Model, Total) of 33.0%, a Mortality reduction (1-(lower/higher mortality rate), VANISH trial, day 28, Full Model, subtype A) of 64.6% and a Mortality reduction (1-(lower/higher mortality rate), VANISH trial, day 28, Full Model, subtype B) of 35.2%. It also gave a Mortality reduction (1-(lower/higher mortality rate), VANISH trial, day 28, Full Model, subtype C) of 56.8%, a Mortality reduction (1-(lower/higher mortality rate), VANISH trial, day 28, Full Model, subtypes CA) of 60.6% and a Mortality reduction (1-(lower/higher mortality rate), VANISH trial, day 28, P Model, Total) of 33.0%. For the same compound, the Mortality reduction (1-(lower/higher mortality rate), VANISH trial, day 28, P Model, subtype A) was 77.6%, the Mortality reduction (1-(lower/higher mortality rate), VANISH trial, day 28, P Model, subtype B) was 9.7% and the Mortality reduction (1-(lower/higher mortality rate), VANISH trial, day 28, P Model, subtypes CA) was 56.5%. For the same compound, the Mortality reduction (1-(lower/higher mortality rate), VANISH trial, day 28, SS Model, Total) was 33.0%, the Mortality reduction (1-(lower/higher mortality rate), VANISH trial, day 28, SS Model, subtype A) was 86.0% and the Mortality reduction (1-(lower/higher mortality rate), VANISH trial, day 28, SS Model, subtype B) was 20.0%. It also gave a Mortality reduction (1-(lower/higher mortality rate), VANISH trial, day 28, SS Model, subtype C) of 4.0%, a Mortality reduction (1-(lower/higher mortality rate), VANISH trial, day 28, SS Model, subtypes CA) of 42.2% and a Mortality reduction (1-(lower/higher mortality rate), VANISH trial, day 28, SS.B2 Model (SVM), Total) of 33.0%. For the same compound, the Mortality reduction (1-(lower/higher mortality rate), VANISH trial, day 28, SS.B2 Model (SVM), type A (SRS2-like)) was 77.3%, the Mortality reduction (1-(lower/higher mortality rate), VANISH trial, day 28, SS.B2 Model (SVM), type B (SRS1-like)) was 24.2% and the Mortality reduction (VANISH trial, day 28, S Model, subtype C) was “Hydro”. For the same compound, the Mortality reduction (VANISH trial, day 28, S Model, subtypes CA) was “Hydro”, the hydro_alive [1] was 29 and the hydro_dead [1] was 13. For the same compound, the mr [1] was 3.8%, the hydro_alive [2] was 29 and the hydro_dead [2] was 13. The mr [2] was 5.8%, the hydro_alive [3] was 29 and the hydro_dead [3] was 13. The mr [3] was 5.8%, the hydro_alive [4] was 32 and the hydro_dead [4] was 15. It also gave a mr [4] of 12.3%, a hydro_alive [5] of 21 and a hydro_dead [5] of 12. The mr [5] was 3.8%, the hydro_alive [6] was 29 and the hydro_dead [6] was 13. The mr [6] was 5.8%, the hydro_alive [7] was 21 and the hydro_dead [7] was 12. It also gave a mr [7] of 2.1%, a hydro_alive [8] of 29 and a hydro_dead [8] of 13. The mr [8] was 0.5%, the hydro_alive [9] was 25 and the hydro_dead [9] was 11. The mr [9] was 17.7%, the hydro_alive [10] was 28 and the hydro_dead [10] was 13. The mr [10] was 0.0%, the hydro_alive [11] was 23 and the hydro_dead [11] was 11. It also gave a mr [11] of 15.4%, a hydro_alive [12] of 24 and a hydro_dead [12] of 12. The mr [12] was 10.3%, the hydro_alive [13] was 7 and the hydro_dead [13] was 9. The mr [13] was 83.8%, the hydro_alive [14] was 7 and the hydro_dead [14] was 9. The mr [14] was 85.2%, the hydro_alive [15] was 4 and the hydro_dead [15] was 7. The mr [15] was 82.5%, the hydro_alive [16] was 7 and the hydro_dead [16] was 9. The mr [16] was 83.8%, the hydro_alive [17] was 7 and the hydro_dead [17] was 9. The mr [17] was 83.8%, the hydro_alive [18] was 15 and the hydro_dead [18] was 10. For the same compound, the mr [18] was 86.8%, the hydro_alive [19] was 7 and the hydro_dead [19] was 9. The mr [19] was 87.3%, the hydro_alive [20] was 15 and the hydro_dead [20] was 10. It also gave a mr [20] of 79.2%, a hydro_alive [21] of 8 and a hydro_dead [21] of 9. For the same compound, the mr [21] was 79.0%, the mr (class B, A score cutoff −0.1277, B score cutoff 0.3630, accuracy in training set 0.83673, 39.32% of patients) was 83.3% and the hydro_alive [22] was 12. For the same compound, the hydro_dead [22] was 10, the mr [22] was 81.7% and the hydro_alive [23] was 13. The hydro_dead [23] was 11, the mr [23] was 82.5% and the “mortality reduction in the placebo group in comparison to the hydrocortisone group” value (VANISH trial, 28-day, Type-A (SRS2-like) patients by SVM classifier on ss.b2 scores) was 75.5%. It also gave an Alive [24] of 36, a Dead [24] of 22 and a Mortality rate [24] of 37.9%. It also gave a Survival rate [24] of 62.1%, an Alive [25] of 9 and a Dead [25] of 8. For the same compound, the Mortality rate [25] was 47.1%, the Survival rate [25] was 52.9% and the Alive [26] was 16. It also gave a Dead [26] of 6, a Mortality rate [26] of 27.3% and a Survival rate [26] of 72.7%.
